The text below walks through data of patent US20040077580A1, “Antisense modulation of PI3K P85 Expression” (priority 2000, published 2004).

Strand notation (5' to 3'): a small letter for the sugar, then the base; units joined by * are phosphorothioate-linked, units joined directly phosphodiester-linked; [ ] holds rarer units or linkages, { } end groups; capitals alone tell only the bases. e = 2'-O-(2-methoxyethyl) (MOE); [5mC] = 5-methylcytosine; d = 2'-deoxy (DNA)

One data set has as its system human PI3K p85 RNA. In words: Inhibition of human PI3K p85 mRNA levels by antisense oligonucleotides, real-time quantitative PCR. It counts as cell-based. The conditions noted are these: chimeric phosphorothioate oligonucleotides with 2′-MOE wings and deoxy gap, oligonucleotide 150 nM, averaged from two experiments. How it is done:
Cells were harvested 16 hours after oligonucleotide treatment.
Poly(A)+ mRNA was isolated according to Miura et al., Clin. Chem., 1996, 42, 1758-1764. Other methods for poly(A)+ mRNA isolation are taught in, for example, Ausubel, F. M. et al., Current Protocols in Molecular Biology, Volume 1, pp. 4.5.1-4.5.3, John Wiley & Sons, Inc., 1993. […] 60 μL lysis buffer (10 mM Tris-HCl, pH 7.6, 1 mM EDTA, 0.5 M NaCl, 0.5% NP-40, 20 mM vanadyl-ribonucleoside complex) was added to each well, the plate was gently agitated and then incubated at room temperature for five minutes. 55 μL of lysate was transferred to Oligo d(T) coated 96-well plates (AGCT Inc., Irvine Calif.). Plates were incubated for 60 minutes at room temperature, washed 3 times with 200 μL of wash buffer (10 mM Tris-HCl pH 7.6, 1 mM EDTA, 0.3 M NaCl). After the final wash, the plate was blotted on paper towels to remove excess wash buffer and then air-dried for 5 minutes. 60 μL of elution buffer (5 mM Tris-HCl pH 7.6), preheated to 70° C. was added to each well, the plate was incubated on a 90° C. hot plate for 5 minutes, and the eluate was then transferred to a fresh 96-well plate.
PI3K p85 probes and primers were designed to hybridize to the human PI3K p85 sequence, using published sequence information (GenBank accession number M61906, incorporated herein as SEQ ID NO: 1).
Target sites are indicated by nucleotide numbers, as given in the sequence source reference (Genbank accession no. M61906), to which the oligonucleotide binds. All compounds in Table 1 are oligodeoxynucleotides with phosphorothioate backbones (internucleoside linkages) throughout. […] Data are averages from two experiments. If present, “N.D.” indicates “no data”.
In accordance with the present invention, a second series of oligonucleotides targeted to human PI3K p85 were synthesized. Target sites are indicated by nucleotide numbers, as given in the sequence source reference (Genbank accession no. M61906), to which the oligonucleotide binds.
Cytidine residues in the 2′-MOE wings are 5-methylcytidines.
Data were obtained by real-time quantitative PCR as described in other examples herein and are averaged from two experiments. If present, “N.D.” indicates “no data”.
As to “28037 (antisense eT*eT*eG*e[5mC]*dC*dC*dA*dA*dC*dC*dA*dC*dT*dC*eG*eT*eT*e[5mC]) [compound 28037]”, the “% Inhibition of PI3K p85 mRNA levels” value is recorded as 28%.

With “28028 (antisense eA*eT*eT*e[5mC]*dA*dG*dC*dA*dT*dT*dT*dT*dG*dT*eA*eA*eG*eG) [compound 28028]”, the “% Inhibition of PI3K p85 mRNA levels” value is 0%.

With “28022 (antisense eA*eT*eT*eT*dC*dA*dC*dT*dG*dT*dA*dA*dA*dC*eG*eG*e[5mC]*eT) [compound 28022]”, the “% Inhibition of PI3K p85 mRNA levels” value worked out at 69%.

As to “28040 (antisense e[5mC]*e[5mC]*eT*eG*dT*dT*dT*dA*dC*dT*dG*dC*dT*dC*eT*e[5mC]*e[5mC]*e[5mC]) [compound 28040]”, the “% Inhibition of PI3K p85 mRNA levels” value came out at 0%.

As for “28021 (antisense eG*eT*eA*eA*dG*dT*dC*dC*dA*dG*dG*dA*dG*dA*eT*eA*eG*e[5mC]) [compound 28021]”, the “% Inhibition of PI3K p85 mRNA levels” value is listed as 43%.

Turning to “28050 (antisense eT*eG*eT*e[5mC]*dT*dG*dG*dG*dT*dC*dC*dA*dC*dC*eG*eT*eG*e[5mC]) [compound 28050]”, the “% Inhibition of PI3K p85 mRNA levels” value was found to be 57%.

Take “28042 (antisense e[5mC]*eT*eT*eT*dA*dC*dT*dT*dC*dG*dC*dC*dG*dT*e[5mC]*e[5mC]*eA*e[5mC]) [compound 28042]”: the “% Inhibition of PI3K p85 mRNA levels” value came out at 0%.

As to “28041 (antisense e[5mC]*e[5mC]*eA*e[5mC]*dC*dA*dC*dT*dA*dC*dA*dG*dA*dG*e[5mC]*eA*eG*eG) [compound 28041]”, the “% Inhibition of PI3K p85 mRNA levels” value was 38%.

On to “28056 (antisense e[5mC]*e[5mC]*eA*eA*dC*dA*dA*dA*dA*dC*dA*dG*dT*dC*e[5mC]*eA*eA*eA) [compound 28056]”, for which the “% Inhibition of PI3K p85 mRNA levels” value is listed as 15%.

Take “28023 (antisense eG*e[5mC]*eT*eT*dG*dA*dA*dG*dA*dA*dA*dT*dG*dT*eT*eT*eT*eA) [compound 28023]”: the “% Inhibition of PI3K p85 mRNA levels” value came to 43%.

For “28049 (antisense e[5mC]*e[5mC]*eA*eG*dG*dC*dT*dA*dA*dA*dC*dC*dA*dG*eG*e[5mC]*eT*eG) [compound 28049]”, the “% Inhibition of PI3K p85 mRNA levels” value amounted to 24%.

With “28031 (antisense e[5mC]*e[5mC]*eG*e[5mC]*dT*dC*dT*dT*dG*dG*dG*dT*dC*dT*eG*eG*e[5mC]*eA) [compound 28031]”, the “% Inhibition of PI3K p85 mRNA levels” value is 15%.

For the substance “28030 (antisense eA*eT*eT*eT*dC*dC*dT*dG*dG*dG*dA*dT*dG*dT*eG*e[5mC]*eG*eG) [compound 28030]”, the “% Inhibition of PI3K p85 mRNA levels” value stood at 74%.

For the substance “28026 (antisense eA*eG*eT*eA*dG*dG*dT*dT*dT*dT*dG*dG*dT*dG*eG*eT*eT*eT) [compound 28026]”, the “% Inhibition of PI3K p85 mRNA levels” value is listed as 54%.

The data set is the same for the next values; noted with them: phosphorothioate oligodeoxynucleotides, oligonucleotide 150 nM, averages from two experiments.
“27999 (antisense CTTTGTTTCGGTTGCTGC; DNA, all phosphorothioate, methylation of C not given here) [compound 27999]”: the “% Inhibition of PI3K p85 mRNA levels” value is reported as 36%.

In the case of “27981 (antisense GTAAGTCCAGGAGATAGC; DNA, all phosphorothioate, methylation of C not given here) [compound 27981]”, the “% Inhibition of PI3K p85 mRNA levels” value is 14%.

“27977 (antisense ATCTTCTTCTCTTTCCTT; DNA, all phosphorothioate, methylation of C not given here) [compound 27977]”: the “% Inhibition of PI3K p85 mRNA levels” value stood at 0%.

On to “27997 (antisense TTGCCCAACCACTCGTTC; DNA, all phosphorothioate, methylation of C not given here) [compound 27997]”, for which the “% Inhibition of PI3K p85 mRNA levels” value is 55%.

For the substance “28012 (antisense ATTCTCCCAAAGCGTCCC; DNA, all phosphorothioate, methylation of C not given here) [compound 28012]”, the “% Inhibition of PI3K p85 mRNA levels” value was 19%.

As for “27979 (antisense TTCAATGGCTTCCACGAG; DNA, all phosphorothioate, methylation of C not given here) [compound 27979]”, the “% Inhibition of PI3K p85 mRNA levels” value is given as 6%.

Take “28001 (antisense CCACCACTACAGAGCAGG; DNA, all phosphorothioate, methylation of C not given here) [compound 28001]”: the “% Inhibition of PI3K p85 mRNA levels” value was determined as 0%.

On to “28005 (antisense GCCCTTTGCTTTCCAGAG; DNA, all phosphorothioate, methylation of C not given here) [compound 28005]”, for which the “% Inhibition of PI3K p85 mRNA levels” value is recorded as 0%.

Regarding “27998 (antisense GTCTTCAGTGTTTTCATT; DNA, all phosphorothioate, methylation of C not given here) [compound 27998]”, the “% Inhibition of PI3K p85 mRNA levels” value is listed as 0%.

“28010 (antisense TGTCTGGGTCCACCGTGC; DNA, all phosphorothioate, methylation of C not given here) [compound 28010]”: the “% Inhibition of PI3K p85 mRNA levels” value is given as 55%.

On to “27978 (antisense GCTTCCTGTCCATCACTG; DNA, all phosphorothioate, methylation of C not given here) [compound 27978]”, for which the “% Inhibition of PI3K p85 mRNA levels” value is recorded as 29%.

In the case of “27993 (antisense ATCCTTTGTATTTCTTTC; DNA, all phosphorothioate, methylation of C not given here) [compound 27993]”, the “% Inhibition of PI3K p85 mRNA levels” value was determined as 15%.

As to “28009 (antisense CCAGGCTAAACCAGGCTG; DNA, all phosphorothioate, methylation of C not given here) [compound 28009]”, the “% Inhibition of PI3K p85 mRNA levels” value stood at 57%.

Turning to “28015 (antisense AACTGAAATAACAACTTA; DNA, all phosphorothioate, methylation of C not given here) [compound 28015]”, the “% Inhibition of PI3K p85 mRNA levels” value was 6%.

Regarding “27990 (antisense ATTTCCTGGGATGTGCGG; DNA, all phosphorothioate, methylation of C not given here) [compound 27990]”, the “% Inhibition of PI3K p85 mRNA levels” value came out at 52%.

For “28000 (antisense CCTGTTTACTGCTCTCCC; DNA, all phosphorothioate, methylation of C not given here) [compound 28000]”, the “% Inhibition of PI3K p85 mRNA levels” value came to 20%.

“27987 (antisense TTATTCATACCGTTGTTG; DNA, all phosphorothioate, methylation of C not given here) [compound 27987]”: the “% Inhibition of PI3K p85 mRNA levels” value was 4%.

Consider “27995 (antisense ATTGGTCTCTCGTCTTTC; DNA, all phosphorothioate, methylation of C not given here) [compound 27995]”, for which the “% Inhibition of PI3K p85 mRNA levels” value amounted to 0%.

Regarding “28002 (antisense CTTTACTTCGCCGTCCAC; DNA, all phosphorothioate, methylation of C not given here) [compound 28002]”, the “% Inhibition of PI3K p85 mRNA levels” value turned out to be 41%.

Take “27983 (antisense GCTTGAAGAAATGTTTTA; DNA, all phosphorothioate, methylation of C not given here) [compound 27983]”: the “% Inhibition of PI3K p85 mRNA levels” value is recorded as 0%.

On to “28008 (antisense CTGCCTCTCTCTCCTCCG; DNA, all phosphorothioate, methylation of C not given here) [compound 28008]”, for which the “% Inhibition of PI3K p85 mRNA levels” value turned out to be 0%.

For “27984 (antisense GGCTGCTGAGAATCTGAA; DNA, all phosphorothioate, methylation of C not given here) [compound 27984]”, the “% Inhibition of PI3K p85 mRNA levels” value was 22%.

Take “27980 (antisense AATTCTGCCAGGTTGCTG; DNA, all phosphorothioate, methylation of C not given here) [compound 27980]”: the “% Inhibition of PI3K p85 mRNA levels” value was found to be 0%.

With “28011 (antisense GACGTGCCTTTCTGCTAC; DNA, all phosphorothioate, methylation of C not given here) [compound 28011]”, the “% Inhibition of PI3K p85 mRNA levels” value turned out to be 28%.
